Measurements taken from patent publication US10670605B2, “Cysteine reactive probes and uses thereof” (The Scripps Research Institute, priority 2015, dated 2020).

Tests used:
Test in all cases: Competitive isoTOP-ABPP, cell lysates;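 for isoTOP-ABPP reactivity profile ratio, P09211 C48: Heavy/light ratio DMSO over fragment-treated so higher means more cysteine engagement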;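 for isoTOP-ABPP reactivity profile ratio, P63244 C182: Heavy/light ratio DMSO over fragment-treated so higher means more cysteine engagement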
Format in all cases: binding
PDIA6 C55 (Q15084) = target: T1, PDIA6 C55 (Q15084) (Homo sapiens, UniProt Q15084); details: 500 μm
T1 sequence (Q15084 20-440): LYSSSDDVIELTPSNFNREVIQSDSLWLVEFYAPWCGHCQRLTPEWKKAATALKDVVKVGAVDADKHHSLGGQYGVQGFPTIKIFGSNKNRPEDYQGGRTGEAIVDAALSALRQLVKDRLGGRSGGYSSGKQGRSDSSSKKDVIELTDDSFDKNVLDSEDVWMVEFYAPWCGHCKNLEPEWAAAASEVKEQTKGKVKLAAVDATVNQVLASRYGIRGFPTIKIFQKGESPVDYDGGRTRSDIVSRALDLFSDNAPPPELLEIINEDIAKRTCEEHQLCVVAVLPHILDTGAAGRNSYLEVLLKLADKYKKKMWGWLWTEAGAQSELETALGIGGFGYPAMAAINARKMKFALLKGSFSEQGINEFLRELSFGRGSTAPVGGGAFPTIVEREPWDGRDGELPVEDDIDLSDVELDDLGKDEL

XPO1 C528 (O14980) = XPO1 C528 (O14980) (Homo sapiens, UniProt O14980); details: 500 μm
MGMT C150 (P16455) = target: T2, MGMT C150 (P16455) (Homo sapiens, UniProt P16455); details: 500 μm, in-vitro_ramos
T2 sequence (P16455 1-207): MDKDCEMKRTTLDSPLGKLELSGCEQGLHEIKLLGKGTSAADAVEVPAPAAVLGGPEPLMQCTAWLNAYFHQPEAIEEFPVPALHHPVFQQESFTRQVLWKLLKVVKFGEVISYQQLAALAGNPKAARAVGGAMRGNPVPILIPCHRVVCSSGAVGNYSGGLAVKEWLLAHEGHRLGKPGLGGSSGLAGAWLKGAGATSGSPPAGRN

GSTP1 C48 (P09211) = GSTP1 C48 (P09211) (Homo sapiens, UniProt P09211); details: 500 μm;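 for isoTOP-ABPP reactivity profile ratio, P09211 C48: Heavy/light ratio DMSO over fragment-treated so higher means more cysteine engagement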
AIP C122 (O00170) = target: T3, AIP C122 (O00170) (Homo sapiens, UniProt O00170); details: 500 μm
T3 sequence (O00170 1-330): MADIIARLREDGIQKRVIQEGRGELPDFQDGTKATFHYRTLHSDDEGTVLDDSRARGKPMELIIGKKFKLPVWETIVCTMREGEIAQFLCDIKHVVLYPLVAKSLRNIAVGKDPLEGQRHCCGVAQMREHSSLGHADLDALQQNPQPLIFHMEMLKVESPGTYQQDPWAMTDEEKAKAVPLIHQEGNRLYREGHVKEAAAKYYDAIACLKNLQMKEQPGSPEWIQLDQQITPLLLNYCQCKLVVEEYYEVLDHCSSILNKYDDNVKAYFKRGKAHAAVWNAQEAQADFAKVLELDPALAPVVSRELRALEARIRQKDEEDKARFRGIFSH

DCUN1D1 C115 (Q96GG9) = DCUN1D1 C115 (Q96GG9) (Homo sapiens, UniProt Q96GG9); details: 500 μm, in-vitro_ramos
GNB2L1 C182 (P63244) = GNB2L1 C182 (P63244) (Homo sapiens, UniProt P63244); details: 500 μm;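 for isoTOP-ABPP reactivity profile ratio, P63244 C182: Heavy/light ratio DMSO over fragment-treated so higher means more cysteine engagement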
IDH1 C269 (O75874) = IDH1 C269 (O75874) (Homo sapiens, UniProt O75874); details: 500 μm, in-vitro_ramos_231
Chain of IDH1 C269 (O75874) (O75874 whole entry): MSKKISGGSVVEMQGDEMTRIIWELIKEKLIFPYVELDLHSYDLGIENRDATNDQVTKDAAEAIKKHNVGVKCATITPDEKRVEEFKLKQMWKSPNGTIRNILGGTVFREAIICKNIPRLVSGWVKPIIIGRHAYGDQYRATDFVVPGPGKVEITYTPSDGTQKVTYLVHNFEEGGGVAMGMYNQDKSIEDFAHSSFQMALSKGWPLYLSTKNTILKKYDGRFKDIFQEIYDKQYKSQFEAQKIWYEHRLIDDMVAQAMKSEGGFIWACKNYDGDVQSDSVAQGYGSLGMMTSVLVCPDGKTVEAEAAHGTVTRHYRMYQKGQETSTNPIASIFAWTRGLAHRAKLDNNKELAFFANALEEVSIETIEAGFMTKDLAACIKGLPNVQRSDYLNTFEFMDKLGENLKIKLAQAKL

Chain of XPO1 C528 (O14980) (O14980 whole entry): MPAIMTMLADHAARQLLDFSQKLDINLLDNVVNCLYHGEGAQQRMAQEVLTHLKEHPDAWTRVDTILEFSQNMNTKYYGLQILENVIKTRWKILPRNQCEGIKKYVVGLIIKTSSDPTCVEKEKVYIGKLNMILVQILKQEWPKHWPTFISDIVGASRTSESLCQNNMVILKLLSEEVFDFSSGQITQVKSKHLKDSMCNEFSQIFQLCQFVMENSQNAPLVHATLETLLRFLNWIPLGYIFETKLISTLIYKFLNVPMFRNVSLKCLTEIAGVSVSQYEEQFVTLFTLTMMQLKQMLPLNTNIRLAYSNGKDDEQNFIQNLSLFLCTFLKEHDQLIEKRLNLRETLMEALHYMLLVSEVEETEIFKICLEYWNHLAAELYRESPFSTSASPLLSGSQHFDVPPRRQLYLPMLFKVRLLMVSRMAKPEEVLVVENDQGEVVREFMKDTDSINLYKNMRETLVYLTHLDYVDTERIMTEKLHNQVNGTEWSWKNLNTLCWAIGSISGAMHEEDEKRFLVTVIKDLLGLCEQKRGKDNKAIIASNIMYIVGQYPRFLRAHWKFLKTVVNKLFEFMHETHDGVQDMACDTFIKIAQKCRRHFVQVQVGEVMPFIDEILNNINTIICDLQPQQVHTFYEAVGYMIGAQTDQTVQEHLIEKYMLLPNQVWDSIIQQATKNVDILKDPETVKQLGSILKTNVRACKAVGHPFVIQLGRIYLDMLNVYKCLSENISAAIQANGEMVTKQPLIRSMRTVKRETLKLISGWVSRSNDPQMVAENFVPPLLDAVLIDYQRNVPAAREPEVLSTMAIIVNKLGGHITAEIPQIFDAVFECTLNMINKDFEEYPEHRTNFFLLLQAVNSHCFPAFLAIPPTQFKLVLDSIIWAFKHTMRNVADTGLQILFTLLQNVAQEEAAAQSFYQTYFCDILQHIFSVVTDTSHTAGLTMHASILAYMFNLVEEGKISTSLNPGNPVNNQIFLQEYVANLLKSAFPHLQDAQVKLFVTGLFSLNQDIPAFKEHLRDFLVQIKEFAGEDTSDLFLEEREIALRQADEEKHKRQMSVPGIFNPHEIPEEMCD
Chain of DCUN1D1 C115 (Q96GG9) (Q96GG9 whole entry, the tested form may be a part): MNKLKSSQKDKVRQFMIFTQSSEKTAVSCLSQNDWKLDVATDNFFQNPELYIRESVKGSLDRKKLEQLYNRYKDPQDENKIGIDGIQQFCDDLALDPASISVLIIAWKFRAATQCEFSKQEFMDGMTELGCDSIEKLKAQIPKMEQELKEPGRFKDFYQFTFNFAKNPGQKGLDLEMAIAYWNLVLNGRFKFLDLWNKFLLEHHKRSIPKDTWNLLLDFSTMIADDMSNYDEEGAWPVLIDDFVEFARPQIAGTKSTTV
Chain of GSTP1 C48 (P09211) (P09211 whole entry, the tested form may be a part): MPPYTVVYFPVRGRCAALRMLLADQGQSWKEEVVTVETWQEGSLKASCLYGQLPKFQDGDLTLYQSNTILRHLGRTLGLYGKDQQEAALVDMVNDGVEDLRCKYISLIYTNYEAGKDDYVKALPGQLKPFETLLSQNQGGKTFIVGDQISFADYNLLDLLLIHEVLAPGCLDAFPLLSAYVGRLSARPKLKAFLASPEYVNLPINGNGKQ

SMILES	isoTOP-ABPP reactivity ratio, Q15084_C55 (PDIA6 C55 (Q15084); in-vitro_ramos_231)	isoTOP-ABPP reactivity ratio, O14980_C528 (XPO1 C528 (O14980); in-vitro_ramos)	isoTOP-ABPP reactivity ratio, P16455_C150 (MGMT C150 (P16455))	isoTOP-ABPP reactivity ratio, P09211_C48 (GSTP1 C48 (P09211); in-vitro_ramos)	isoTOP-ABPP reactivity ratio, P09211_C48 (GSTP1 C48 (P09211); in-vitro_ramos_231)	isoTOP-ABPP reactivity ratio, P63244_C182 (GNB2L1 C182 (P63244); in-vitro_ramos)	isoTOP-ABPP reactivity profile ratio, Q15084_C55 (PDIA6 C55 (Q15084); in-vitro_ramos)	isoTOP-ABPP reactivity profile ratio, P09211_C48 (GSTP1 C48 (P09211); in-vitro_ramos)	isoTOP-ABPP reactivity profile ratio, P63244_C182 (GNB2L1 C182 (P63244); in-vitro_ramos)	isoTOP-ABPP reactivity profile ratio, Q15084_C55 (PDIA6 C55 (Q15084); in-vitro_ramos_231)	isoTOP-ABPP reactivity profile ratio, P09211_C48 (GSTP1 C48 (P09211); in-vitro_ramos_231)	isoTOP-ABPP reactivity profile ratio, P63244_C182 (GNB2L1 C182 (P63244); in-vitro_ramos_231)	isoTOP-ABPP reactivity profile ratio, O75874_C269 (IDH1 C269 (O75874))	other results
O=C(CCl)N(Cc1ccc(F)cc1)C12CC3CC(CC(C3)C1)C2 [compound 34]	0.9	1.1	1.4	1.0	0.8									isoTOP-ABPP reactivity ratio, O00170_C122 (AIP C122 (O00170); in-vitro_ramos_231): 1.0
O=C(CCl)Nc1ccccc1C1CCCCCC1 [compound 35]	0.9	0.8	1.3	1.3	0.7	0.9								isoTOP-ABPP reactivity ratio, Q96GG9_C115 (DCUN1D1 C115 (Q96GG9)): 0.9; isoTOP-ABPP reactivity ratio, P63244_C182 (GNB2L1 C182 (P63244); in-vitro_ramos_231): 0.9
C=CC(=O)N1CCC(c2noc3ccc(F)cc23)CC1 [compound 37]		0.9	1.0	1.2		0.9								isoTOP-ABPP reactivity ratio, Q15084_C55 (PDIA6 C55 (Q15084); in-vitro_ramos): 1.0; isoTOP-ABPP reactivity ratio, Q96GG9_C115 (DCUN1D1 C115 (Q96GG9)): 0.8
Cc1ccc(C=C(C#N)C(=O)NCCN2CCOCC2)cc1 [compound 41]	0.9		0.9	0.9	1.3	4.7								isoTOP-ABPP reactivity ratio, Q15084_C55 (PDIA6 C55 (Q15084); in-vitro_ramos): 0.8; isoTOP-ABPP reactivity ratio, O14980_C528 (XPO1 C528 (O14980); in-vitro_ramos_231): 0.6; isoTOP-ABPP reactivity ratio, O75874_C269 (IDH1 C269 (O75874)): 0.8; isoTOP-ABPP reactivity ratio, O00170_C122 (AIP C122 (O00170); in-vitro_ramos): 1.0; isoTOP-ABPP reactivity ratio, O00170_C122 (AIP C122 (O00170); in-vitro_ramos_231): 1.1
N#CC(=Cc1ccc(-c2ccccc2Cl)o1)C(N)=O [compound 42]							0.9	0.7	0.8					isoTOP-ABPP reactivity profile ratio, P16455_C150 (MGMT C150 (P16455)): 0.8; isoTOP-ABPP reactivity profile ratio, Q96GG9_C115 (DCUN1D1 C115 (Q96GG9)): 0.9; isoTOP-ABPP reactivity profile ratio, O00170_C122 (AIP C122 (O00170); in-vitro_ramos): 0.8
COc1cc(NC(=O)CCl)cc(OC)c1 [compound 43]							20.0	2.2	0.9	20.0	4.1	0.9	0.8	isoTOP-ABPP reactivity profile ratio, O14980_C528 (XPO1 C528 (O14980); in-vitro_ramos_231): 4.6; isoTOP-ABPP reactivity profile ratio, P16455_C150 (MGMT C150 (P16455)): 20.0; isoTOP-ABPP reactivity profile ratio, O00170_C122 (AIP C122 (O00170); in-vitro_ramos): 2.1
CC1CCc2ccccc2N1C(=O)CCl (centres unmarked) [compound 45]											19.7	0.9	20.0	
C=CC(=O)N(c1ccccc1)C1CCCCC1 [compound 46]										0.8	1.0	0.8	0.6	isoTOP-ABPP reactivity profile ratio, O14980_C528 (XPO1 C528 (O14980); in-vitro_ramos_231): 0.7
O=C(CCl)N1CCc2cc(Br)ccc21 [compound 50]										1.3	2.3	0.8	20.0	isoTOP-ABPP reactivity profile ratio, O00170_C122 (AIP C122 (O00170); in-vitro_ramos_231): 2.3
O=C(CCl)Nc1cccc2ncccc12 [compound 51]							2.7	1.0	0.9	2.5	1.1	0.7		isoTOP-ABPP reactivity profile ratio, O14980_C528 (XPO1 C528 (O14980); in-vitro_ramos): 0.9; isoTOP-ABPP reactivity profile ratio, Q96GG9_C115 (DCUN1D1 C115 (Q96GG9)): 0.8; isoTOP-ABPP reactivity profile ratio, O00170_C122 (AIP C122 (O00170); in-vitro_ramos_231): 1.4
